Literature values in US7622592B2, “Carbonylamino-benzimidazole derivatives as androgen receptor modulators” (Merck & Co., Inc., priority 2002, dated 2009).

Conditions: after 7 years of treatment

In the case of `NCCCC(O)(P(=O)(O)O)P(=O)(O)O` [alendronate, 4-amino-1-hydroxybutylidene-1,1-bisphosphonic acid], the “increase in spinal BMD” value is listed as 11.
